Calls of active or inactive are those of the source.
Legend:
[1] = biological target: T1, Tyrosine-protein phosphatase non-receptor type 7 (Homo sapiens, UniProt P35236); format: functional
T1 sequence (P35236 whole entry): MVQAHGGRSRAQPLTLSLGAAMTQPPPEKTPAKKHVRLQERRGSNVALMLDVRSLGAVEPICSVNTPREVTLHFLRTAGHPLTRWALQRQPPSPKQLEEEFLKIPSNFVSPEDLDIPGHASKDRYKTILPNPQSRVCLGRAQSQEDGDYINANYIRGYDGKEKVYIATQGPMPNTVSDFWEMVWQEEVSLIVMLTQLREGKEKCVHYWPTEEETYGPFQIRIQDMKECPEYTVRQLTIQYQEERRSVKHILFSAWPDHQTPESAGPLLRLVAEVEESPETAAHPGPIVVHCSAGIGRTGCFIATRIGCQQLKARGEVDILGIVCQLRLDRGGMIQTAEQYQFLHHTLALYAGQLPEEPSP

[2] = biological target: T2, Tyrosine-protein phosphatase non-receptor type 22 (Homo sapiens, UniProt Q9Y2R2); format: functional
T2 sequence (Q9Y2R2 whole entry): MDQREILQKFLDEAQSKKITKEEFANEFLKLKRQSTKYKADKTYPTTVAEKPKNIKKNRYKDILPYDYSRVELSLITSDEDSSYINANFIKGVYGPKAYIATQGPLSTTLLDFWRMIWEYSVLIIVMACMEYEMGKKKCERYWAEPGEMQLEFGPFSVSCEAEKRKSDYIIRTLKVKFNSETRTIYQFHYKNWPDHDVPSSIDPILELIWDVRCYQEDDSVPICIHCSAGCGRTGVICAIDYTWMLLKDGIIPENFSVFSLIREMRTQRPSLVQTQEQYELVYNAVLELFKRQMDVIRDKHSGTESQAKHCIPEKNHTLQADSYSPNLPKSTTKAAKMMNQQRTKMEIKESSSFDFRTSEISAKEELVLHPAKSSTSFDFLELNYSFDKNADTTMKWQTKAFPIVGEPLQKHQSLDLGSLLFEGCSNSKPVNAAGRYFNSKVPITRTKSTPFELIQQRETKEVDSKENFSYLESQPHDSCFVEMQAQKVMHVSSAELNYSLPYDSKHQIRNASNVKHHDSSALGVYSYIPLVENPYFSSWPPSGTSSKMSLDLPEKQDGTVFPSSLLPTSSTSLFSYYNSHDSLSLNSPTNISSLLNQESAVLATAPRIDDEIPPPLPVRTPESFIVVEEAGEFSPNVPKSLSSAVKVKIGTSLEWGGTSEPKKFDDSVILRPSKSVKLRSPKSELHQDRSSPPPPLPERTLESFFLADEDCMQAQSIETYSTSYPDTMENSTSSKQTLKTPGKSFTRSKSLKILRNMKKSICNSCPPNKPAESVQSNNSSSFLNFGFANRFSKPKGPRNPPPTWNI

[3] = biological target: T2, Tyrosine-protein phosphatase non-receptor type 22; format: functional; remark: listed apart in the source
[4] = biological target: Sphingosine 1-phosphate receptor 3 (Homo sapiens, UniProt Q99500); experiment: Late stage counterscreen assay for S1P4 antagonists: Fluorescence dose response cell-based screening assay for antagonists of the Sphingosine 1-Phosphate Receptor 3 (S1P3). [Related pubchem assays (depositor defined):AID1510, AID1524, AID1692, AID1853, AID2332, AID489009, AID489017]; format: functional
Sequence of Sphingosine 1-phosphate receptor 3 (Q99500 whole entry): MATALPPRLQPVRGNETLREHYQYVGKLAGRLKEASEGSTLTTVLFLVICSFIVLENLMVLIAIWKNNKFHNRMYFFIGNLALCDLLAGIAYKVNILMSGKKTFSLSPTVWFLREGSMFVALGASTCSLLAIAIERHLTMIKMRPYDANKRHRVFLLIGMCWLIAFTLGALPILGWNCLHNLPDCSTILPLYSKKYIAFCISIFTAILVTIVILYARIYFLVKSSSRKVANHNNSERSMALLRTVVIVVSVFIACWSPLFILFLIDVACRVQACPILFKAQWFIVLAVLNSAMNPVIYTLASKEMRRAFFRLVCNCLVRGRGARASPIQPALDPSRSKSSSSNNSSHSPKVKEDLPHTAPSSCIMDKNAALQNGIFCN

[5] = biological target: Sphingosine 1-phosphate receptor 2 (Homo sapiens, UniProt O95136); experiment: Late stage counterscreen assay for S1P4 antagonists: Fluorescence dose response cell-based screening assay for antagonists of the Sphingosine 1-Phosphate Receptor 2 (S1P2). [Related pubchem assays (depositor defined):AID1510, AID1524, AID1692, AID1853, AID2332, AID489009, AID489017]; format: functional
[6] = biological target: Sphingosine 1-phosphate receptor 1 (Homo sapiens, UniProt P21453); experiment: Late stage counterscreen assay for S1P4 antagonists: Fluorescence dose response cell-based screening assay for antagonists of the Sphingosine 1-Phosphate Receptor 1 (S1P1). [Related pubchem assays (depositor defined):AID1510, AID1524, AID1692, AID1853, AID2332, AID489009, AID489017]; format: functional
[7] = biological target: Sphingosine 1-phosphate receptor 5 (Homo sapiens, UniProt Q9H228); experiment: Late stage counterscreen assay for S1P4 antagonists: Fluorescence dose response cell-based screening assay for antagonists of the Sphingosine 1-Phosphate Receptor 5 (S1P5). [Related pubchem assays (depositor defined):AID1510, AID1524, AID1692, AID1853, AID2332, AID489009, AID489017]; format: functional
Escherichia coli = experiment: microbe, parasite or virus in culture
Streptokinase A = biological target: T3, Streptokinase A (Streptococcus pyogenes serotype M1, UniProt P10520); experiment: S. pyogenes streptokinase expression inhibitors, potency, dose response, plasminogen activation absorbance, OD405 (AID 1914); format: functional, Streptococcus pyogenes M1 GAS;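 further: secreted streptokinase activity via plasminogen activation per viability signal from cell pellet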
T3 sequence (P10520 whole entry): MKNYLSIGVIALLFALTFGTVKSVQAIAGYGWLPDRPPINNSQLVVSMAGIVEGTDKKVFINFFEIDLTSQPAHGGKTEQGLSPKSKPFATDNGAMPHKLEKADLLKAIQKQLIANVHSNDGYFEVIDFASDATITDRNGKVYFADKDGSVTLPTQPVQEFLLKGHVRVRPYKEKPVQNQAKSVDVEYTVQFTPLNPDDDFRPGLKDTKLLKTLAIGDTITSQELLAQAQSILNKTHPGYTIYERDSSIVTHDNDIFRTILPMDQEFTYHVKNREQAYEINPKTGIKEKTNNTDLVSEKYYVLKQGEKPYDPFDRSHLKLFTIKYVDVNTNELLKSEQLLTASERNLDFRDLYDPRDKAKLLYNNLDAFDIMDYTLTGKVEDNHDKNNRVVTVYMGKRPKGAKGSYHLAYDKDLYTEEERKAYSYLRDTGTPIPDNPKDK

[8] = NIH-3T3 fibroblast cytotoxicity, dose response, cytotoxicity control, cell-based, fluorescence, Alamar Blue, secondary assay (AID 2327); format: functional;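 further: NIH-3T3 mouse fibroblasts cultured with fluconazole at 8 µg/mL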
[9] = biological target: Peroxisome proliferator-activated receptor gamma/Nuclear receptor coactivator 1 (Homo sapiens, UniProt P37231); experiment: TR-FRET dose response biochemical High Throughput Screening assay for agonists of the steroid receptor coactivator 1 (SRC-1) recruitment by the peroxisome proliferator-activated receptor gamma (PPAR gamma): non-selective agonists. [Related pubchem assays (depositor defined):AID1300, AID1808, AID504735, AID631]; format: protein assay
Sequence of Peroxisome proliferator-activated receptor gamma/Nuclear receptor coactivator 1 (P37231 whole entry): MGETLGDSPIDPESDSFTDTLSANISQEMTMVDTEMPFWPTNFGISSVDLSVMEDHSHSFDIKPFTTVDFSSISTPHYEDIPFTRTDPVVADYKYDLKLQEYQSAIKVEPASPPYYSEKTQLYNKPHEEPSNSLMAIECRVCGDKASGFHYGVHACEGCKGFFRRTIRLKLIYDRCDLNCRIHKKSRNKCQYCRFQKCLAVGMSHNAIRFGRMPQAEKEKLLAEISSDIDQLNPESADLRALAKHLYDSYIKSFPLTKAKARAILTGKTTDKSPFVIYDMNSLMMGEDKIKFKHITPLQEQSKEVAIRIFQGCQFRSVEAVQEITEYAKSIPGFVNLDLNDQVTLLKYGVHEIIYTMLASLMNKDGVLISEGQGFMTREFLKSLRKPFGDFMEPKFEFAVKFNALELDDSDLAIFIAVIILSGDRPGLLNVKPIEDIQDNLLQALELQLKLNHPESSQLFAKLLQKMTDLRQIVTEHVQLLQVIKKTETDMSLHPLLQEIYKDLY
Sequence of Peroxisome proliferator-activated receptor gamma/Nuclear receptor coactivator 1 (Q15788 whole entry, further chain): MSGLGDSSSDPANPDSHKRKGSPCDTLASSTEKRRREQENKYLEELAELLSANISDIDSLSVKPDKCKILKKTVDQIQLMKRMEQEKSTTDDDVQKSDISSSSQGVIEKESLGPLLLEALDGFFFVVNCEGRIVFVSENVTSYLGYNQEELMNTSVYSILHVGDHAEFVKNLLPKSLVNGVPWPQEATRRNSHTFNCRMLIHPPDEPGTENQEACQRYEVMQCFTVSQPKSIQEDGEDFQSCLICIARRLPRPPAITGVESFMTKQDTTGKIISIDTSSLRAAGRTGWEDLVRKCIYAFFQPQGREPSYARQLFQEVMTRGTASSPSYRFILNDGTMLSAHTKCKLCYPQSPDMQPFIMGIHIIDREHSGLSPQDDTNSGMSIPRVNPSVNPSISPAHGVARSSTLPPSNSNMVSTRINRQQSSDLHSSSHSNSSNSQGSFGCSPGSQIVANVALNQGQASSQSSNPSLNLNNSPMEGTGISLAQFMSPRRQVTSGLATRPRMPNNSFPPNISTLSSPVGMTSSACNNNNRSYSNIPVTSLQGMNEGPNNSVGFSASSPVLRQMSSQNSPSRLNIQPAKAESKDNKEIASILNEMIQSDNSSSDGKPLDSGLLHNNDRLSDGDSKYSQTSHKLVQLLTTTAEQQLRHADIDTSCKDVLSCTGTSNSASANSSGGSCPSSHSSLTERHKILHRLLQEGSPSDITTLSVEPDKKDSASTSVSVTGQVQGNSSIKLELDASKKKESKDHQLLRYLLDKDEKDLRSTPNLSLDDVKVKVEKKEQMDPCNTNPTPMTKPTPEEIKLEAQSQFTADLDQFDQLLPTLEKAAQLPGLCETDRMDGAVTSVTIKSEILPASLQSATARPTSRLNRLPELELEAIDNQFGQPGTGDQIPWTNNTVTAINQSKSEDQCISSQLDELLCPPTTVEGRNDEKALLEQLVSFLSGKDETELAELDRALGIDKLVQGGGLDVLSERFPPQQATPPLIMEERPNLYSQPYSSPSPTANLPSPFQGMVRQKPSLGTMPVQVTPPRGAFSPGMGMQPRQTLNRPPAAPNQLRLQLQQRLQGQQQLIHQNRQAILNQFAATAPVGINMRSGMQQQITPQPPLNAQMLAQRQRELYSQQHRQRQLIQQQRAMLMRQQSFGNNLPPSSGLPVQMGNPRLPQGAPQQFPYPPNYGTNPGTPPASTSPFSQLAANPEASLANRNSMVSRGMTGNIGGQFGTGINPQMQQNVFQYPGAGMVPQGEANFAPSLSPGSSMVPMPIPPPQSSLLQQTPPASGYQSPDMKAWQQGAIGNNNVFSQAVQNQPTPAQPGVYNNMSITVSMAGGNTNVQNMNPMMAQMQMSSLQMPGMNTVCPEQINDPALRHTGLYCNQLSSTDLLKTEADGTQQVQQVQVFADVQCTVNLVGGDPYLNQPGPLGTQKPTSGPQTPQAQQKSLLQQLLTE

[10] = biological target: Peroxisome proliferator-activated receptor gamma/Nuclear receptor coactivator 2 (Homo sapiens, UniProt P37231); experiment: TR-FRET dose response biochemical High Throughput Screening assay for agonists of the steroid receptor coactivator 2 (SRC-2) recruitment by the peroxisome proliferator-activated receptor gamma (PPAR gamma): non-selective agonists. [Related pubchem assays: 1297, 1032 ]; format: functional
Sequence of Peroxisome proliferator-activated receptor gamma/Nuclear receptor coactivator 2 (P37231 whole entry): as the sequence (P37231 whole entry) above
Sequence of Peroxisome proliferator-activated receptor gamma/Nuclear receptor coactivator 2 (Q15596 whole entry, further chain): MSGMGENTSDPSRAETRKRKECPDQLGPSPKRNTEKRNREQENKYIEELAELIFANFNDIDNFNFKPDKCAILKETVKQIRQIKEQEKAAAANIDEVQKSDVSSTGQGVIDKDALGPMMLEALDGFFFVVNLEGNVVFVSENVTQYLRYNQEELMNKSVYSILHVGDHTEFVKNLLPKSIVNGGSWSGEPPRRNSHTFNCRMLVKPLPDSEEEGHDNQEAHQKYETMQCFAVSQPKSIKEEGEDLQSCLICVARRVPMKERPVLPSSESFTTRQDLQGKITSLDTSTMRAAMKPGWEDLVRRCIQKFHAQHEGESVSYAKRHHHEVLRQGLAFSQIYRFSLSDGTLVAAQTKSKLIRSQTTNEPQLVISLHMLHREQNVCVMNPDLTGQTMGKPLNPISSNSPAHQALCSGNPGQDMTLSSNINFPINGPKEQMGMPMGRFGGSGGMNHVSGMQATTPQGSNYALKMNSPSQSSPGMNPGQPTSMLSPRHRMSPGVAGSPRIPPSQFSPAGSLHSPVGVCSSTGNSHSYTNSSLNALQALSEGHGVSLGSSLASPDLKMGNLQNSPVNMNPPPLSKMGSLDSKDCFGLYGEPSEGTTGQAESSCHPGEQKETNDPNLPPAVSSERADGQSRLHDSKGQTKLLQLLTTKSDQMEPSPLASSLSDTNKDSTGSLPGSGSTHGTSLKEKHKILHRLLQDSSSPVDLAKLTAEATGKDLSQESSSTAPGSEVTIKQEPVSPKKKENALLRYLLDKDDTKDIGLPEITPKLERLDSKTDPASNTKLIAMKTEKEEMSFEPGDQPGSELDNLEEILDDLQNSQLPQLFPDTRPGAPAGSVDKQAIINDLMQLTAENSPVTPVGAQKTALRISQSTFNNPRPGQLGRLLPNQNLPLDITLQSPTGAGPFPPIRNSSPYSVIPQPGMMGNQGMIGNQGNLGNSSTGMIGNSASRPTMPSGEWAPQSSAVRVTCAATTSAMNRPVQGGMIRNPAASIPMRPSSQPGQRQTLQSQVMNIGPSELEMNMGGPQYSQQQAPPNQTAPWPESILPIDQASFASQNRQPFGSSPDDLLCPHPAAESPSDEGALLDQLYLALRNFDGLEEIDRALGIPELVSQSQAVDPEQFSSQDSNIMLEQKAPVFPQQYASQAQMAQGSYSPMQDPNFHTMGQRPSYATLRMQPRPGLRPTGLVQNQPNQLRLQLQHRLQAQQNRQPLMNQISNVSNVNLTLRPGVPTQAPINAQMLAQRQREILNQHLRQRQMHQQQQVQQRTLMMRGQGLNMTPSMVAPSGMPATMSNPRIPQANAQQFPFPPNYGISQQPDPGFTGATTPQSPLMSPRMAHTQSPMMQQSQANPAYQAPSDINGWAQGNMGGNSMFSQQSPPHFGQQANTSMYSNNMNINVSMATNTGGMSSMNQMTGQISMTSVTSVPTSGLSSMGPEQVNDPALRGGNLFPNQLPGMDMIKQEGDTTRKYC

[11] = C. albicans growth with fluconazole, confirmation, fluorescence, retest (AID 2467); format: functional, cell-based
Streptococcus = experiment: Group A Streptococcus viability loss, dose response, counter-screen for streptokinase expression inhibitor project, luminescence, BacTiterGlo (AID 1915); format: functional, organism-based;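 further: potency for reduction of bacterial viability or growth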
[12] = biological target: T4, Probable nicotinate-nucleotide adenylyltransferase (Staphylococcus aureus (strain N315), UniProt P65502); format: functional, Staphylococcus aureus subsp. aureus N315; conditions: read-out: IC50_Mean;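 on IC50 Mean: confirmatory dose-response retesting of NadD inhibitor hits first found in an ultra-high-throughput screen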
T4 sequence (P65502 whole entry): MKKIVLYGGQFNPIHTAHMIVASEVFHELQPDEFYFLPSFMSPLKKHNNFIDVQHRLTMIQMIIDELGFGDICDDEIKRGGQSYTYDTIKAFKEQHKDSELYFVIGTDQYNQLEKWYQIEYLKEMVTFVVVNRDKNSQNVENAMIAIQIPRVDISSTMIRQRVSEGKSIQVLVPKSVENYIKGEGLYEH

[13] = biological target: T4, Probable nicotinate-nucleotide adenylyltransferase; format: functional, Staphylococcus aureus subsp. aureus N315
Vero = Vero cell cytotoxicity, cytotoxicity control for flavivirus capping enzyme inhibitors (AID 588742); format: functional; conditions: Chlorocebus sabaeus
[14] = biological target: Peroxisome proliferator-activated receptor gamma/Nuclear receptor coactivator 3 (Homo sapiens, UniProt P37231); experiment: TR-FRET dose response biochemical High Throughput Screening assay for agonists of the steroid receptor coactivator 3 (SRC-3) recruitment by the peroxisome proliferator-activated receptor gamma (PPAR gamma): non-selective agonists. [Related pubchem assays: 1301 (Confirmation screen.), 1048 (Primary screen.)]; format: functional
Genome polyprotein = Genome polyprotein (dengue virus type 2, UniProt P29990); experiment: Dengue-2 NS5 methyltransferase inhibitors, primary screen, biochemical, confirmation dose response (AID 588689); format: functional
[15] = biological target: Induced myeloid leukemia cell differentiation protein Mcl-1 (Homo sapiens, UniProt Q07820); format: functional
Sequence of Induced myeloid leukemia cell differentiation protein Mcl-1 (Q07820 whole entry): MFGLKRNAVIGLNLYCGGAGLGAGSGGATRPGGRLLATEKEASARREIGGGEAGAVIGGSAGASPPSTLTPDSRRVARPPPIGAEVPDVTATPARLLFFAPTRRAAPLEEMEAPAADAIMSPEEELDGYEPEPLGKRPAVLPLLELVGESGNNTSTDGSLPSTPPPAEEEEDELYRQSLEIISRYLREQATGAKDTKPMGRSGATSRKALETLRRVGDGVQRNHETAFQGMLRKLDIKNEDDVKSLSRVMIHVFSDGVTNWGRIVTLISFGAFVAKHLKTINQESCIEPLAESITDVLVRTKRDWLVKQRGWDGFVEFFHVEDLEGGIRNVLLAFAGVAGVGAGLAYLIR

[16] = tested on: Streptococcus sp. 'group A'; experiment: growth inhibition of control SK(-) GAS strain, dose response, counter-screen for streptokinase expression inhibitor project, luminescence, kanamycin, BacTiterGlo, confirmation (AID 1900); format: functional, organism-based
[17] = biological target: ATP-dependent molecular chaperone HSP82 (Candida albicans (strain WO-1) (Yeast), UniProt C4YTQ8); experiment: loss of DOC-induced GRE-beta-galactosidase reporter signal, dose response, Hsp90 inhibitor project, S. cerevisiae, luminescence (AID 2400); format: functional, cell-based;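 further: beta-galactosidase luminescence from glucocorticoid response element reporter as proxy for Hsp90 function; inhibitor potency where signal loss means Hsp90 inhibition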
[18] = biological target: T5, Serine/threonine-protein phosphatase (Candida dubliniensis (strain CD36 / CBS 7987 / NCPF 3949 / NRRLY-17841) (Yeast), UniProt B9W6M3); experiment: calcineurin pathway inhibitors in yeast reporter, dose response, S. cerevisiae, CDRE-lacZ, luminescence, secondary (AID 2388); format: functional, cell-based;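 further: yeast reporter cells carrying a calcineurin-responsive lacZ construct stimulated with calcium chloride; luminescent beta-galactosidase reporter signal in whole cells rather than isolated phosphatase activity; potency for inhibition where a drop in reporter signal means calcineurin blockade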
T5 sequence (B9W6M3 whole entry): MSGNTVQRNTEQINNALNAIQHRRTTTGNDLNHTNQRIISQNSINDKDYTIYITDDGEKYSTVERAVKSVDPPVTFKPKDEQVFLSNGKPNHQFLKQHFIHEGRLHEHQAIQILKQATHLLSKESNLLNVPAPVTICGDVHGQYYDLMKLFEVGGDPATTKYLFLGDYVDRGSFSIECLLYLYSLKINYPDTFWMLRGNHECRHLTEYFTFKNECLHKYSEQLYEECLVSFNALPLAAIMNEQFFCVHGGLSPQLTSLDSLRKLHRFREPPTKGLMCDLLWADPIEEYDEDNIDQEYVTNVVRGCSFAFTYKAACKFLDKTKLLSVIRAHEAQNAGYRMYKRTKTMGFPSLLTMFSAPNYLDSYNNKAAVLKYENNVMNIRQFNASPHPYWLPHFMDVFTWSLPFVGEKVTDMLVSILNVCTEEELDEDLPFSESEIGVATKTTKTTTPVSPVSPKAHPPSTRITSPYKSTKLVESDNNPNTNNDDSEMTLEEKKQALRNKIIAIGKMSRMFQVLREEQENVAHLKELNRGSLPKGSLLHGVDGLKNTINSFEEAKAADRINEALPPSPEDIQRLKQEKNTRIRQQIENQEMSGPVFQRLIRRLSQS

Aminopeptidase N = biological target: T6, Aminopeptidase N (Plasmodium falciparum FcB1/Columbia, UniProt O96935); experiment: P. falciparum M1AAP inhibitors, biochemical, fluorogenic H-Leu-NHMec substrate, 1536-well (AID 1445); set-up: species or system Plasmodium falciparum 3D7, 3D7
T6 sequence (O96935 whole entry): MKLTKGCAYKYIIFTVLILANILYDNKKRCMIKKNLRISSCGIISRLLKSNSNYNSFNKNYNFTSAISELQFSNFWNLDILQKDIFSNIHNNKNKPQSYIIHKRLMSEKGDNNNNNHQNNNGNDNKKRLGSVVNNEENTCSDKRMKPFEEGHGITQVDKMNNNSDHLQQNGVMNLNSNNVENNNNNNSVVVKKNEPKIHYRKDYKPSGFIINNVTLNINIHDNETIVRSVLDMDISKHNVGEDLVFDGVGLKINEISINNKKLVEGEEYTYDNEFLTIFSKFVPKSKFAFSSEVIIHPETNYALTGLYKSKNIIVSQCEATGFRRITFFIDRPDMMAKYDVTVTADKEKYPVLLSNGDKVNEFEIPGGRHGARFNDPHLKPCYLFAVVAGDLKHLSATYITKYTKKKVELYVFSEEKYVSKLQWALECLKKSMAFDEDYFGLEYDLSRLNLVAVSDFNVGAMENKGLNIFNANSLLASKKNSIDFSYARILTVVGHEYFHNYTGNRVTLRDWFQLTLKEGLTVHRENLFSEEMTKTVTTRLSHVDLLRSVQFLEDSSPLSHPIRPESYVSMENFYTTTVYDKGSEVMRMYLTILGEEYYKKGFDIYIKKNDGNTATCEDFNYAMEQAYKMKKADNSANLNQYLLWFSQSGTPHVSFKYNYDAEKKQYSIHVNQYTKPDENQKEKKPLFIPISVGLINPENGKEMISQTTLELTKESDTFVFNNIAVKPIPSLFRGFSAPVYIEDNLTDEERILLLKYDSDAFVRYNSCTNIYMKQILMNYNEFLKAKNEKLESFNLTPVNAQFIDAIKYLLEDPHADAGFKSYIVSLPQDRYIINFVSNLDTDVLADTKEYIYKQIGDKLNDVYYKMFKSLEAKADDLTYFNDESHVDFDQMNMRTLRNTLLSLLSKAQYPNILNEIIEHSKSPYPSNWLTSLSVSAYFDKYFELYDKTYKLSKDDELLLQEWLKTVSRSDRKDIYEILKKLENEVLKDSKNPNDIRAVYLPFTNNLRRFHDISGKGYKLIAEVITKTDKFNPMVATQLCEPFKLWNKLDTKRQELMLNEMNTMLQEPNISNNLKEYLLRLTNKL

Cc1ccc(-n2c(=O)c3sccc3n(CC(=O)NCC3CCCO3)c2=O)cc1F (configuration not stated)
inactive: IC50 [1] > 79.4 µM | IC50 [2] > 79.4 µM | IC50 [3] > 79.4 µM

Cc1cccc(C)c1NC(=O)c1ccc(-c2cc(F)ccc2F)o1
inactive: IC50 [4] > 25 µM | IC50 [5] 16.9 µM | IC50 [6] > 25 µM | IC50 [7] > 25 µM

COc1ccc(OC(C)C(=O)N2CC(C)OC(C)C2)cc1 (configuration not stated)
inactive: IC50 [1] > 79.4 µM | IC50 [2] > 79.4 µM | IC50 [3] > 79.4 µM

Cc1ccc(N2C(=O)/C(=C\Nc3ccccc3-c3nnc(S)nc3O)c3ccccc3C2=O)cc1C
inconclusive: EC50 [8] 16 µM
active: AC50 (Escherichia coli) 33.6 µM | EC50 [11] 0.262 µM | EC50 (Streptococcus) 13.8 µM | IC50 [12] 11.2 µM | IC50 [13] 3.94 µM | CC50 (Vero) > 40 µM | IC50 (Genome polyprotein) 31.5 µM | IC50 [15] 3.26 µM | EC50 [16] 0.798 µM | EC50 [17] 23 µM | IC50 (Aminopeptidase N) 39.2 µM
13.2 µM (not active): EC50 [10]
inactive: EC50 [9] 26.6 µM | EC50 [18] > 180 µM
> 150 µM (not active): EC50 (Streptokinase A)
> 79.4 µM (not active): EC50 [14]

— ChEMBL document CHEMBL1201862, “PubChem BioAssay data set” (2004)
